Results taken from ChEMBL document CHEMBL4732094, “Synthesis of some new benzoxazole derivatives and investigation of their anticancer activities” (Eur J Med Chem, 2021).

What was measured:
NIH3T3 = test: Cytotoxicity against mouse NIH3T3 cells assessed as cell viability measured after 24 hrs by MTT assay; format: cell-based; conditions: NIH3T3, 24 h
[1] = Selectivity index, ratio of IC50 for cytotoxicity against mouse NIH3T3 cells to IC50 for cytotoxicity against human HepG2 cells; format: toxicity, cell-based; conditions: NIH3T3 cells versus HepG2 cells, read-out: Ratio IC50
MCF7 [2] = test: Cytotoxicity against human MCF7 cells assessed as cell viability measured after 24 hrs by MTT assay; format: functional, cell-based; conditions: MCF7, 24 h
[3] = Selectivity index, ratio of IC50 for cytotoxicity against mouse NIH3T3 cells to IC50 for cytotoxicity against human A549 cells; format: toxicity, cell-based; conditions: NIH3T3 cells versus A549 cells, read-out: Ratio IC50
[4] = Selectivity index, ratio of IC50 for cytotoxicity against mouse NIH3T3 cells to IC50 for cytotoxicity against rat C6 cells; format: toxicity, cell-based; conditions: NIH3T3 cells versus C6 cells, read-out: Ratio IC50
[5] = Drug metabolism in human HepG2 cells assessed as amine metabolite formation after 24 hrs by LCMS-IT-TOF analysis; format: ADME, cell-based; conditions: hepg2, 24 h
HepG2 [6] = test: Induction of apoptosis in human HepG2 cells assessed as viable cells at IC50 concentration measured after 24 hrs by Annexin V-FITC/PI staining based flow cytometry method (reference value: 87.8%); format: functional
C6 [7] = test: Inhibition of DNA synthesis in rat C6 cells assessed as reduction in cell proliferation measured after 24 to 48 hrs by BrdU proliferation assay; format: functional, cell-based; conditions: time 24-48 hrs
MCF7 [8] = test: Induction of apoptosis in human MCF7 cells assessed as late apoptotic cells at IC50 concentration measured after 24 hrs by Annexin V-FITC/PI staining based flow cytometry method (reference value: 1.8%); format: functional
[9] = Drug metabolism in human HepG2 cells assessed as oxidative dehalogenation after 24 hrs by LCMS-IT-TOF analysis; format: ADME, cell-based; conditions: hepg2, 24 h
C6 [10] = test: Induction of apoptosis in rat C6 cells assessed as apoptotic cells at IC50 concentration measured after 24 hrs by Annexin V-FITC/PI staining based flow cytometry method relative to control; format: functional
HT-29 [11] = test: Induction of apoptosis in human HT-29 cells assessed as necrotic cells at IC50 concentration measured after 24 hrs by Annexin V-FITC/PI staining based flow cytometry method (reference value: 7.2%); format: functional
HT-29 [12] = test: Induction of apoptosis in human HT-29 cells assessed as late apoptotic cells at IC50 concentration measured after 24 hrs by Annexin V-FITC/PI staining based flow cytometry method (reference value: 1.5%); format: functional
MCF7 [13] = test: Induction of apoptosis in human MCF7 cells assessed as viable cells at IC50 concentration measured after 24 hrs by Annexin V-FITC/PI staining based flow cytometry method (reference value: 94.9%); format: functional
MCF7 [14] = test: Induction of apoptosis in human MCF7 cells assessed as early apoptotic cells at IC50 concentration measured after 24 hrs by Annexin V-FITC/PI staining based flow cytometry method (reference value: 2.2%); format: functional
HepG2 [15] = test: Cytotoxicity against human HepG2 cells assessed as cell viability measured after 24 hrs by MTT assay; format: functional, cell-based; conditions: HepG2, 24 h
A549 = test: Cytotoxicity against human A549 cells assessed as cell viability measured after 24 hrs by MTT assay; format: functional, cell-based; conditions: A549, 24 h
HepG2 [16] = test: Induction of apoptosis in human HepG2 cells assessed as early apoptotic cells at IC50 concentration measured after 24 hrs by Annexin V-FITC/PI staining based flow cytometry method (reference value: 0.9%); format: functional
HepG2 [17] = test: Inhibition of DNA synthesis in human HepG2 cells assessed as reduction in cell proliferation measured after 24 to 48 hrs by BrdU proliferation assay; format: functional, cell-based; conditions: time 24-48 hrs
HepG2 [18] = test: Induction of apoptosis in human HepG2 cells assessed as late apoptotic cells at IC50 concentration measured after 24 hrs by Annexin V-FITC/PI staining based flow cytometry method (reference value: 8.7%); format: functional
HT-29 [19] = test: Induction of apoptosis in human HT-29 cells assessed as early apoptotic cells at IC50 concentration measured after 24 hrs by Annexin V-FITC/PI staining based flow cytometry method (reference value: 1.1%); format: functional
MCF7 [20] = test: Induction of apoptosis in human MCF7 cells assessed as necrotic cells at IC50 concentration measured after 24 hrs by Annexin V-FITC/PI staining based flow cytometry method (reference value: 1%); format: functional
[21] = Selectivity index, ratio of IC50 for cytotoxicity against mouse NIH3T3 cells to IC50 for cytotoxicity against human MCF7 cells; format: toxicity, cell-based; conditions: NIH3T3 cells versus MCF7 cells, read-out: Ratio IC50
C6 [22] = test: Cytotoxicity against rat C6 cells assessed as cell viability measured after 24 hrs by MTT assay; format: functional, cell-based; conditions: C6, 24 h
HT-29 [23] = test: Induction of apoptosis in human HT-29 cells assessed as viable cells at IC50 concentration measured after 24 hrs by Annexin V-FITC/PI staining based flow cytometry method (reference value: 90.3%); format: functional
HT-29 [24] = test: Cytotoxicity against human HT-29 cells assessed as cell viability measured after 24 hrs by MTT assay; format: functional, cell-based; conditions: HT-29, 24 h
MCF7 [25] = test: Inhibition of DNA synthesis in human MCF7 cells assessed as reduction in cell proliferation measured after 24 to 48 hrs by BrdU proliferation assay; format: functional, cell-based; conditions: time 24-48 hrs
[26] = Selectivity index, ratio of IC50 for cytotoxicity against mouse NIH3T3 cells to IC50 for cytotoxicity against human HT-29 cells; format: toxicity, cell-based; conditions: NIH3T3 cells versus HT-29 cells, read-out: Ratio IC50
HepG2 [27] = test: Induction of apoptosis in human HepG2 cells assessed as necrotic cells at IC50 concentration measured after 24 hrs by Annexin V-FITC/PI staining based flow cytometry method (reference value: 4.6%); format: functional
HT-29 [28] = test: Inhibition of DNA synthesis in human HT-29 cells assessed as reduction in cell proliferation measured after 24 to 48 hrs by BrdU proliferation assay; format: functional, cell-based; conditions: time 24-48 hrs

Structure (SMILES) | IC50 (NIH3T3) | selectivity ratio [1] | IC50 (MCF7 [2]) | selectivity ratio [3] | selectivity ratio [4] | Activity (HepG2 [6]) | inhibition (C6 [7]) | Activity (C6 [10]) | IC50 (HepG2 [15]) | IC50 (A549) | Activity (HepG2 [16]) | inhibition (HepG2 [17]) | Activity (HepG2 [18]) | selectivity ratio [21] | IC50 (C6 [22]) | IC50 (HT-29 [24]) | selectivity ratio [26] | Activity (HepG2 [27]) | also measured
CN(C)CCCN1CCN(CC(=O)Nc2ccc(-c3nc4cc(Cl)ccc4o3)cc2)CC1 | 25.8 µM | 20.6 | 1.65 µM | 5.96 | 28.3 | 62.6% | Dose-dependent effect | 13.6% | 1.25 µM | 4.32 µM | 8.3% | Dose-dependent effect | 27.9% | 15.6 | 0.91 µM | 1.64 µM | 15.7 | 1.1% | Drug metabolism [5]: Metabolite_Detected; Activity (MCF7 [8]): 46.4%; Drug metabolism [9]: Metabolite_Detected; Activity (HT-29 [11]): 0.6%; Activity (HT-29 [12]): 7.4%; Activity (MCF7 [13]): 25.9%; Activity (MCF7 [14]): 23.7%; Activity (HT-29 [19]): 6.5%; Activity (MCF7 [20]): 3.9%; Activity (HT-29 [23]): 85.5%; inhibition (MCF7 [25]): Dose-dependent effect; inhibition (HT-29 [28]): Dose-dependent effect
COc1cccc2c1C(=O)c1c(O)c3c(c(O)c1C2=O)C[C@@](O)(C(=O)CO)C[C@@H]3O[C@H]1C[C@H](N)[C@H](O)[C@H](C)O1 [DOXORUBICIN] |  |  |  |  |  | 73.6% | Dose-dependent effect | 35.7% | 18 µM | 10.8 µM | 0.9% | Dose-dependent effect | 21.4% |  | 25.6 µM | 16.3 µM |  | 4.2% | Activity (MCF7 [8]): 49.3%; Activity (HT-29 [11]): 3.5%; Activity (HT-29 [12]): 6.6%; Activity (MCF7 [13]): 42.9%; Activity (MCF7 [14]): 1%; Activity (HT-29 [19]): 1.9%; Activity (MCF7 [20]): 6.8%; Activity (HT-29 [23]): 88%; inhibition (MCF7 [25]): Dose-dependent effect; inhibition (HT-29 [28]): Dose-dependent effect
CN(C)CCN1CCN(CC(=O)Nc2ccc(-c3nc4cc(Cl)ccc4o3)cc2)CC1 | 28.7 µM | 10.9 | 7.92 µM | 4.04 | 27.8 | 85.2% | Dose-dependent effect | 10.7% | 2.64 µM | 7.1 µM | 3.7% | Dose-dependent effect | 10.3% | 3.62 | 1.03 µM | 4.47 µM | 6.41 | 0.8% | Drug metabolism [5]: Metabolite_Detected; Drug metabolism [9]: Metabolite_Detected
Cc1cc(-c2nc3ccccc3o2)ccc1NC(=O)CN1CCN(CCCN(C)C)CC1 | 33.5 µM | 15.5 | 11.3 µM | 1.52 | 0.86 | 77.5% |  |  | 2.16 µM | 22.1 µM | 5% | Dose-dependent effect | 16.7% | 2.97 | 38.7 µM | 15.5 µM | 2.17 | 0.8% | 
Cc1ccc2oc(-c3ccc(NC(=O)CN4CCN(CCN(C)C)CC4)cc3)nc2c1 | 28.9 µM | 22.8 | 23.7 µM | 7.9 | 17.8 |  | Dose-dependent effect | 19.3% | 1.27 µM | 3.66 µM |  |  |  | 1.22 | 1.63 µM | 1.79 µM | 16.2 |  | Activity (HT-29 [11]): 0.4%; Activity (HT-29 [12]): 8.5%; Activity (HT-29 [19]): 15%; Activity (HT-29 [23]): 76%; inhibition (HT-29 [28]): Dose-dependent effect
Cc1cc(-c2nc3cc(F)ccc3o2)ccc1NC(=O)CN1CCN(CCCN(C)C)CC1 | 65.7 µM | 9.19 | 7.77 µM | 5.39 | 5.59 |  |  |  | 7.15 µM | 12.2 µM |  |  |  | 8.45 | 11.8 µM | 6.7 µM | 9.8 |  | 
Cc1ccc2oc(-c3ccc(NC(=O)CN4CCN(CCCN(C)C)CC4)c(C)c3)nc2c1 | 13.2 µM | 2.34 | 19.8 µM | 0.87 | 1.81 |  |  |  | 5.65 µM | 15.3 µM |  |  |  | 0.67 | 7.32 µM | 12.7 µM | 1.04 |  | 
Cc1ccc2oc(-c3ccc(NC(=O)CN4CCN(CCCN(C)C)CC4)cc3)nc2c1 | 26.4 µM | 8.36 | 19.1 µM | 2.5 | 14.6 |  | Dose-dependent effect | 14% | 3.16 µM | 10.6 µM |  |  |  | 1.38 | 1.81 µM | 3.89 µM | 6.79 |  | 
CN(C)CCN1CCN(CC(=O)Nc2ccc(-c3nc4cc(F)ccc4o3)cc2)CC1 | 72 µM | 3.84 | 20.8 µM | 4.33 | 16.4 |  | Dose-dependent effect | 46% | 18.8 µM | 16.6 µM |  |  |  | 3.46 | 4.39 µM | 8.19 µM | 8.79 |  | 
O=C(CCl)Nc1ccc(-c2nc3cc(F)ccc3o2)cc1 | 9.19 µM | 1.13 | 3.26 µM | 0.24 | 3.07 |  |  |  | 8.12 µM | 37.7 µM |  |  |  | 2.82 | 2.99 µM | 6.93 µM | 1.33 |  | 
Cc1ccc2oc(-c3ccc(NC(=O)CCl)cc3)nc2c1 | 11.6 µM | 0.54 | 4.62 µM | 0.32 | 2.86 |  |  |  | 21.5 µM | 36.1 µM |  |  |  | 2.5 | 4.04 µM | 15.2 µM | 0.76 |  | 
Cc1ccc2oc(-c3ccc(NC(=O)CN4CCN(CCN(C)C)CC4)c(C)c3)nc2c1 | 5.67 µM | 0.44 | 90.3 µM | 0.51 | 0.34 |  |  |  | 12.8 µM | 11 µM |  |  |  | 0.06 | 16.6 µM | 7.24 µM | 0.78 |  | 
